Results reported in patent US11643395B2, “Derivatives of 4-aminoantipyrine as anti-Alzheimers butyrylcholinesterase inhibitors” (priority 2021, dated 2023).
Entries after “also recorded” stand apart in the source; their conditions may differ. Where a name gives a salt, the structure may show the parent alone.

How the values were obtained:
[1] = target: T1, butyrylcholinesterase (BuChE) enzyme (Homo sapiens (Human), UniProt P06276); assay: In-vitro butyryl cholinesterase inhibitory activity (DTNB, 96-well); format: biochemical; conditions: for IC50: read-out: Butyrylcholinesterase Inhibition Activity IC50 ± SEM; for Butyrylcholinesterase inhibition, rating in words: compared with standard galantamine hydrobromide
Description: After that 10 μL of pre-prepared butyrylthiocholine chloride (0.5 mM) substrate was added in the dark for 15 minutes, followed by the addition DTNB (0.5 mM), to produce thionitrobenzoate (TNB), whose absorbance range in 412 nm. 5-Thio-2 nitrobenzoate (TNB) (yellow color) anion was produced when thiocholine binds with DTNB which was measured in the form of absorbance in each well. Each compound was evaluated in triplicate at 0.5 mM.
The enzyme inhibitory activity was calculated using the following formula: Percent Inhibition=100−(O.D. of test/O.D. of control)×100
Where test is the enzyme activity with sample, and control is the enzyme activity without sample, and O.D. is optical density.
The IC50 of the compounds was calculated using EZ-Fit Enzyme Kinetic Program (Perrella Scientific Inc., Amhrest, U.S.A.).

[2] = target: T1, butyrylcholinesterase (BuChE) enzyme; assay: Kinetic studies of butyrylcholinesterase inhibition (L-B reciprocal plots); format: biochemical; conditions: four substrate concentrations (0.05, 0.1, 0.2, 0.4 mM); for Ki: read-out: Butyrylcholinesterase Inhibition Activity Ki ± SEM
Description: 0.5 mM concentrations of each inhibitor, as well as control, were examined for their butyrylcholinesterase inhibitory activity using four different substrate concentrations (0.05, 0.1, 0.2, and 0.4 mM).

[3] = butyrylthiocholine chloride substrate, pH 8.0, 25° C.

T1 sequence (P06276 29-602): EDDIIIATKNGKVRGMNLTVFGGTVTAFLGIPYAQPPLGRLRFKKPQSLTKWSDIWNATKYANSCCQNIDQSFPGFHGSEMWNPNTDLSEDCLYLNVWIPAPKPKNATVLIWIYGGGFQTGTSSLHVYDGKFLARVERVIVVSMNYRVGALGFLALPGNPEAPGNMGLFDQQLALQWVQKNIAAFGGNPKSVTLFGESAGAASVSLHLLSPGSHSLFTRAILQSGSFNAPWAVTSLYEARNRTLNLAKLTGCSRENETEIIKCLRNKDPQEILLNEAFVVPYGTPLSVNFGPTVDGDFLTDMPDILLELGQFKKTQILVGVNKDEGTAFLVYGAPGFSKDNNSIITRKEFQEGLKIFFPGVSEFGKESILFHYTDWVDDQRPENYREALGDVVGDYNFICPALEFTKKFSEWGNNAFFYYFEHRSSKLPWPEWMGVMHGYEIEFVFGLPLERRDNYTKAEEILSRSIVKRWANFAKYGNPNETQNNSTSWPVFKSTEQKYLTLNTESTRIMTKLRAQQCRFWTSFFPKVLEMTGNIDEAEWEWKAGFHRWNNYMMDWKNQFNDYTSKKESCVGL

Compound | IC50 [1, 3] | Butyrylcholinesterase inhibition, rating in words [1] | Type of inhibition of butyrylcholinesterase [2] | Ki [2] | Butyrylcholinesterase Inhibition Activity IC50 ± SEM [1, 3]
Cc1c(N(Cc2cccc(Br)c2)Cc2cccc(Br)c2)c(=O)n(-c2ccccc2)n1C [Compound 8, 4-(Bis(3-bromobenzyl)amino)-1,5-dimethyl-2-phenyl-1,2-dihydro-3H-pyrazol-3-one] | 26.2 nM | potent inhibitors | – | – | –
COc1ccc2c3c1O[C@H]1C[C@@H](O)C=C[C@@]31CCN(C)C2 [galantamine hydrobromide, reference compound] | – | – | Mixed type Inhibitor | – | –
Cc1c(N(Cc2ccccc2Br)Cc2ccccc2Br)c(=O)n(-c2ccccc2)n1C [Compound 6, 4-(Bis(2-bromobenzyl)amino)-1,5-dimethyl-2-phenyl-1,2-dihydro-3H-pyrazol-3-one] | 700 nM | potent inhibitors | non-competitive type of inhibition; also recorded: Non-competitive Inhibitor | 2400 nM | –
Cc1c(N(Cc2ccccc2Cl)Cc2ccccc2Cl)c(=O)n(-c2ccccc2)n1C [Compound 2, 4-(Bis(2-chlorobenzyl)amino)-1,5-dimethyl-2-phenyl-1,2-dihydro-3H-pyrazol-3-one] | 500 nM | potent inhibitors | – | – | –
Cc1c(N(Cc2ccccc2I)Cc2ccccc2I)c(=O)n(-c2ccccc2)n1C [Compound 4, 4-(Bis(2-iodobenzyl)amino)-1,5-dimethyl-2-phenyl-1,2-dihydro-3H-pyrazol-3-one] | – | completely inactive | – | – | Not Active
Cc1c(N(Cc2cccc(I)c2)Cc2cccc(I)c2)c(=O)n(-c2ccccc2)n1C [Compound 3, 4-(Bis(3-iodobenzyl)amino)-1,5-dimethyl-2-phenyl-1,2-dihydro-3H-pyrazol-3-one] | 400 nM | potent inhibitors | – | – | –
Cc1c(N)c(=O)n(-c2ccccc2)n1C [4-aminoantipyrine, 4-Aminoantipyrine] | 69700 ± 400 nM | moderate inhibitor | – | – | –
Cc1c(N(Cc2ccc(I)cc2)Cc2ccc(I)cc2)c(=O)n(-c2ccccc2)n1C [Compound 5, 4-(Bis(4-iodobenzyl)amino)-1,5-dimethyl-2-phenyl-1,2-dihydro-3H-pyrazol-3-one] | 2430 nM | potent inhibitors | competitive inhibition; also recorded: Competitive Inhibitor | 5670 nM | –
Cc1c(N(Cc2ccc(Br)cc2)Cc2ccc(Br)cc2)c(=O)n(-c2ccccc2)n1C [Compound 7, 4-(Bis(4-bromobenzyl)amino)-1,5-dimethyl-2-phenyl-1,2-dihydro-3H-pyrazol-3-one] | 58700 ± 400 nM | moderate inhibitor | – | – | –
Cc1c(N(Cc2cccc(Cl)c2)Cc2cccc(Cl)c2)c(=O)n(-c2ccccc2)n1C [Compound 1, 4-(Bis(3-chlorobenzyl)amino)-1,5-dimethyl-2-phenyl-1,2-dihydro-3H-pyrazol-3-one] | 100 nM | potent inhibitors | – | – | –
